In US20110033525A1, “Diterpene Glycosides as Natural Solubilizers” (priority 2008, published 2011):
Converted amounts (≈) assume the structure as drawn. Like-named read-outs stand apart in the source and are kept apart here. Blank lines part the entries; values can stand above or below the compound they belong to.

Key:
[1] = physchem; settings: for Concentration dissolved in rubusoside water solution: 20 mg rubusoside in 1 ml water; for Aqueous drug concentration, 10% RUBUSOSIDE: Table 8, 10% w/v rubusoside (SFA) water solution
Description: Solubility test methods: A compound with low solubility was selected and weighed into multiple centrifuge tubes. Each experimental tube received a known amount of the solubilizing agent being tested. The control tubes remained only with the compound. The same volume, 1 mL, unless otherwise indicated, of deionized and distilled water was added to each tube. Alternatively, a set percentage of water solutions containing the solubilizer to be tested (e.g., 5% w/v or 10% w/v) were prepared separately. In these cases, the solubilizer-water solutions were added directly to the tubes containing the low-solubility compound. The tubes were then vortexed briefly and then sonicated for 60 min at temperature of 50° C. unless otherwise indicated. After sonication, the tubes were placed on an orbital shaker at a speed of 80 rpm in an incubator set at 25° C. for at least 24 hr. The tubes were then centrifuged at 4000 rpm for 10 min. The supernatant solution was passed through a 0.2 μm or 0.45 μm filter and analyzed for the concentration of the low-solubility compound, and sometimes the solubilizing compound, by HPLC or UV-Vis spectrophotometer.
The system was computer controlled, and the results were analyzed using Empower software. Calibrations curves were constructed using known concentrations of the compounds and were used to quantify the concentrations of the compounds dissolved in solution. A more complete description of the HPLC procedure for some of the diterpene glycosides is found in G. Chou et al., “Quantitative and fingerprint analyses of Chinese sweet tea plant (Rubus suavissimus S. Lee),” J. Agric. Food Chem., vol.
The ratio of peak areas was used to calculate the increase in water solubility in the absence or presence of solubilizers.

[2] = test system: PANC-1 (human pancreatic) cancer cells; assay: MTT cellular proliferation assay, PANC-1; type: cell-based; settings: 72 hr
Description: (§1) Paclitaxel and camptothecin were purchased from Sigma Chemicals (St. Louis, Mo.). […] The solution was sonicated for 60 min at 69° C. and then placed in a shaking incubator at 25° C. for 48 hr. The solution was then centrifuged at 4,000×g, and the supernatant was filtered with a 0.2 μm nylon filter. […] The sample was labeled as TXL100. To make an aqueous solution of camptothecin, about 5 mg of camptothecin was weighed into a solution containing 70 mg/ml rubusoside. The solution was sonicated for 60 min at 69° C., and then placed in a shaking incubator at 25° C. for 48 hr. The solution was then centrifuged at 4,000×g and the supernatant was filtered with a 0.2 μm nylon filter. This aqueous solution was analyzed by HPLC and contained 10 μg/ml camptothecin in the presence of 70 mg/ml rubusoside. This sample was labeled as CPT70.
(§2) Inhibition of cellular proliferation was assessed by a MTT assay. Each well of the 96-well plate contained 10^4 cells/100 μl cell culture growth medium. The cells were seeded onto the plate and placed in a 37° C. incubator overnight. On the next day, the compound treatment was set up. A series of dilutions using phosphate buffered saline (PBS) containing 10% FBS (fetal bovine serum) with either the test compound or vehicle with cell culture growth medium was made for each well with a final volume of 200 μl. Each treatment had 8 wells in a column. Prior to the addition of the test compound, the existing medium in each of the wells was aspirated completely and carefully to avoid losing cells. A series of dilutions of the aqueous samples were made ranging from 20 μl to 0.078 μl supplemented with culture media to make a final volume of 200 μl for each well. The plate was placed in a 37° C. incubator for 72 hr. On the day of the staining, MTT solution (3 mg Thiazolyl Blue Tetrazolium Bromide/ml PBS was prepared. To each well, 25 μl MTT solution was directly added. The plate was then incubated for 90 to 120 min. Afterwards, the wells were aspirated completely and carefully. Finally, 50 μl DMSO (dimethyl sulfoxide) was added to each well. The plate was read at 650 nm on a microplate reader. Cell proliferations were calculated as % of the control using the vehicle treatment as the control.
(§3) Calculations of IC50 in molar concentrations were as follows. […] Thus, 1 μl/ml of TXL solution in the culture medium equaled 17 ng TXL/ml culture medium, which equaled 19.9 nM based on the molecular weight of 854.
(§4) CPT: The sample concentration of CPT was 10 μg/ml=10 ng/μl, and the molecular weight of camptothecin is 348. Thus, 1 μl/ml of CPT solution in the culture medium equaled 10 ng CPT/ml culture medium, which equaled 28.7 nM based on the molecular weight of 348.

[3] = test system: PC3 (human prostate) cancer cells; assay: MTT cellular proliferation assay, PC3; type: cell-based; settings: 72 hr
Description: as §1, §2, §3, §4

[4] = test system: PC3 cells; settings: existing formulation, Danesi 1995, Rowinsky 1990, read-out: Reported IC50 for PC3 cells, cited from earlier work
[5] = test system: MDA-M231 breast cancer cells; settings: current drug formulation; Nornoo 2008; read-out: Concentration to kill 50% of cells; cited from earlier work
[6] = cited from earlier work; for Water solubility in words: The Merck Index (1996) or Material Safety Data Sheets; for Aqueous drug concentration, AQUEOUS SOLUTION: Table 8, without rubusoside, same values as published ones of Table 1
[7] = Estimated safe daily consumption of steviol glycosides
Description: Some diterpene glycosides have been approved by the FDA as sweeteners (e.g., rebaudioside A).

[8] = volume of aqueous sample per ml culture medium
[9] = Homo sapiens, converted from μl/ml, read-out: IC50
[10] = 25 °C, aqueous with cosolvent or surfactant or cyclodextrin, thermodynamic from solid, Solubility in water with solubilizer
[11] = 25 °C, aqueous with cosolvent or surfactant or cyclodextrin, thermodynamic from solid, Solubility in water with solubilizer, natural solubilizer (rubusoside) 10% w/v (100 mg in 1 ml)

- Solubility in water with solubilizer [1]: 10 µg/mL
- Solubility increase factor [1]: up to 877
- Concentration dissolved in rubusoside water solution [1]: 0.35 µg/mL
- IC50 [2, 8]: 0.24 μl/ml
- IC50 [2, 9]: 4.9 nM
- IC50 [3, 8]: 0.69 μl/ml
- IC50 [3, 9]: 13.7 nM
Structure (SMILES): CC(=O)O[C@H]1C(=O)[C@@]2(C)[C@H]([C@H](OC(=O)c3ccccc3)[C@]3(O)C[C@H](OC(=O)[C@H](O)[C@@H](NC(=O)c4ccccc4)c4ccccc4)C(C)=C1C3(C)C)[C@]1(OC(C)=O)CO[C@@H]1C[C@@H]2O [Paclitaxel, reference compound]
- IC50 ([4]; listed as paclitaxel): 31.2 nM
- IC50 [4]: 50 nM
- IC50 [5]: > 1000 nM

- Solubility increase factor [1]: 9.6
- Amount dissolved in 1 ml water ([1]; 400 mg rubusoside, 25° C.): 106 mg
- Amount dissolved in 1 ml water ([1]; 800 mg rubusoside, 37° C.): 212 mg
- Fold increase over amount dissolved in plain water ([1]; 800 mg rubusoside, 37° C.): 19.3 fold
- solubility [1, 10]: 106000 µg/mL (≈ 623 mM)
Structure (SMILES): O=C(O)c1cc(O)c(O)c(O)c1 [Gallic acid]

- Concentration in water without rubusoside (control sample) [1]: not detected
- Solubility increase factor [1]: Many
- solubility [1, 10]: 488 µg/mL (≈ 1.28 mM)
Structure (SMILES): Cc1ccc(-c2cc(C(F)(F)F)nn2-c2ccc(S(N)(=O)=O)cc2)cc1 [Celecoxib, reference compound]

Structure (SMILES): Cc1coc2c1C(=O)C(=O)c1c-2ccc2c1CCCC2(C)C [Tanshinone IIA]
- solubility [1, 11]: ~53.3 µg/mL (≈ 0.181 mM)
- solubility ([1]; 25 °C, aqueous with cosolvent or surfactant or cyclodextrin, thermodynamic from solid, Solubility in water with solubilizer, natural solubilizer (rubusoside) 20% w/v (200 mg in 1 ml)): ~128 µg/mL (≈ 0.434 mM)
- Water solubility in words [6]: nearly insoluble

- Solubility increase factor [1]: Many
- solubility [1, 10]: 150 µg/mL (≈ 0.311 mM)
Structure (SMILES): COc1cc(C2Oc3cc([C@H]4Oc5cc(O)cc(O)c5C(=O)[C@@H]4O)ccc3OC2CO)ccc1O (some centres unmarked) [Silybin (Silibinin), Silybin]

- Solubility increase factor [1]: 11
- solubility [1, 10]: 5330 µg/mL (≈ 7.27 mM)
Structure (SMILES): CC[C@H]1OC(=O)[C@H](C)[C@@H](O[C@H]2C[C@@](C)(OC)[C@@H](O)[C@H](C)O2)[C@H](C)[C@@H](O[C@@H]2O[C@H](C)C[C@H](N(C)C)[C@H]2O)[C@](C)(O)C[C@@H](C)C(=O)[C@H](C)[C@@H](O)[C@]1(C)O [Erythromycin, reference compound]

- Concentration in water without rubusoside (control sample) [1]: 57 µg/mL
- Solubility increase factor [1]: 86
- Concentration dissolved in rubusoside water solution [1]: 589 µg/mL
- solubility [1, 11]: 4920 µg/mL (≈ 16.1 mM)
- solubility ([1]; 25 °C, water, thermodynamic from solid, Solubility): 57 µg/mL (≈ 0.187 mM)
Structure (SMILES): COc1cc(CNC(=O)CCCC/C=C/C(C)C)ccc1O [Capsaicin, reference compound]

Structure (SMILES): CC(C)c1cccc(C(C)C)c1O [Propofol, reference compound]
- Concentration in water without rubusoside (control sample) [1]: no measurable propofol
- Solubility increase factor [1]: 74
- solubility [1, 10]: 11700 µg/mL (≈ 65.6 mM)

- Concentration in water without rubusoside (control sample) [1]: not detected
- Solubility in water with solubilizer [1]: 21 µg/mL
- Solubility increase factor [1]: Many
Structure (SMILES): CCC(C)n1ncn(-c2ccc(N3CCN(c4ccc(OCC5COC(Cn6cncn6)(c6ccc(Cl)cc6Cl)O5)cc4)CC3)cc2)c1=O (centres unmarked) [Itraconazole, reference compound]

Structure (SMILES): C[C@@H]1O[C@@H](OC[C@H]2O[C@@H](Oc3c(-c4ccc(O)c(O)c4)oc4cc(O)cc(O)c4c3=O)[C@H](O)[C@@H](O)[C@@H]2O)[C@H](O)[C@H](O)[C@H]1O [Rutin]
- solubility [1, 10]: 1750 µg/mL (≈ 2.87 mM)
- Water solubility in words [6]: nearly insoluble

Structure (SMILES): C[C@@H]1[C@H](O)[C@@H](C)/C=C/C=C/CC/C=C/C=C/C=C/C=C/C(O[C@H]2O[C@H](C)[C@@H](O)[C@H](N)[C@@H]2O)CC2O[C@](O)(CC(O)C(O)CCC(O)CC(O)CC(O)CC(=O)O[C@H]1C)CC(O)C2C(=O)O (some centres unmarked) [Nystatin, reference compound]
- Aqueous drug concentration, 10% RUBUSOSIDE [1]: 1,100 μg/ml
- Aqueous drug concentration, AQUEOUS SOLUTION [6]: 66 µg/mL

Structure (SMILES): C=C1C[C@@]23CC[C@H]4[C@@](C)(CCC[C@@]4(C)C(=O)O[C@@H]4O[C@H](CO)[C@@H](O)[C@H](O)[C@H]4O)[C@@H]2CC[C@]1(O[C@@H]1O[C@H](CO)[C@@H](O)[C@H](O)[C@H]1O)C3 [rubusoside, b-D-glucosyl ester of 13-O-b-D-glucosyl-steviol]
- Water solubility [1]: about 60 g/100 mL water
- solubility ([1]; 25 °C, water, Solubility in water): ~400000 µg/mL (≈ 622 mM)
- solubility ([1]; 37 °C, water, Solubility in water): ~800000 µg/mL (≈ 1240 mM)
- Daily consumption that is safe and has no adverse effect [7]: 8 mg rubusoside/kg body weight
- No-observed-effect level ([7]; estimate based on 383 mg/kg expressed as steviol): up to 766 mg rubusoside/kg body weight

- Solubility in water with solubilizer [1]: 111 µg/mL
- Solubility increase factor [1]: 1110
- solubility [1, 10]: 111 µg/mL (≈ 0.129 mM)
Structure (SMILES): COC1=C(OC)C(=O)C(C/C=C(\C)CC/C=C(\C)CC/C=C(\C)CC/C=C(\C)CC/C=C(\C)CC/C=C(\C)CC/C=C(\C)CC/C=C(\C)CC/C=C(\C)CCC=C(C)C)=C(C)C1=O [Coenzyme Q10]

- Solubility increase factor [1]: 5
- solubility [1, 10]: 280 µg/mL (≈ 0.992 mM)
Structure (SMILES): C[C@@H]1CC[C@H]2[C@@H](C)C(=O)O[C@@H]3O[C@@]4(C)CC[C@@H]1[C@]32OO4 [Artemisinin, reference compound]

- Solubility in water with solubilizer [1]: 13,250 μg/mL
- Solubility increase factor [1]: Many
Structure (SMILES): Cc1c(C)c2c(c(C)c1O)CC[C@@](C)(CCC[C@H](C)CCC[C@H](C)CCCC(C)C)O2 [Alpha-Tocopherol (VE), Alpha-tocopherol]

Structure (SMILES): C[C@@H]1[C@H](O)[C@@H](C)/C=C/C=C/C=C/C=C/C=C/C=C/C=C/[C@H](O[C@@H]2O[C@H](C)[C@@H](O)[C@H](N)[C@@H]2O)C[C@@H]2O[C@](O)(C[C@@H](O)C[C@@H](O)[C@H](O)CC[C@@H](O)C[C@@H](O)CC(=O)O[C@H]1C)C[C@H](O)[C@H]2C(=O)O [Amphotericin B, reference compound]
- Aqueous drug concentration, 10% RUBUSOSIDE [1]: 200 µg/mL
- Aqueous drug concentration, AQUEOUS SOLUTION [6]: 82 µg/mL

Structure (SMILES): COc1cc([C@@H]2c3cc4c(cc3[C@H](O)[C@H]3COC(=O)[C@H]23)OCO4)cc(OC)c1OC [Podophyllotoxin, reference compound]
- solubility ([1]; 25 °C, aqueous with cosolvent or surfactant or cyclodextrin, thermodynamic from solid): 919 µg/mL (≈ 2.22 mM)
- Water solubility in words [6]: nearly insoluble

- Solubility increase factor [1]: 92
- solubility [1, 10]: 240 µg/mL (≈ 0.263 mM)
Structure (SMILES): CO[C@H]1C[C@@H]2CC[C@@H](C)[C@@](O)(O2)C(=O)C(=O)N2CCCC[C@H]2C(=O)O[C@H]([C@H](C)C[C@@H]2CC[C@@H](O)[C@H](OC)C2)CC(=O)[C@H](C)/C=C(\C)[C@@H](O)[C@@H](OC)C(=O)[C@H](C)C[C@H](C)/C=C/C=C/C=C/1C [Rapamycin (Sirolimus), Rapamycin, reference compound]
- Water solubility in words [6]: insoluble
